Experiments:
[1] = test system: DMBA-induced rat mammary carcinoma; experiment: DMBA-induced rat mammary carcinoma model; assay type: in vivo; conditions: initial tumor weight = 100%
Excerpt: (§1) • In vivo Experiment: DMBA-induced rat mammary carcinoma model • Experimental Animal: Sprague-Dawley rat, female • Procedure: The mammary carcinoma was induced by a single oral dose of DMBA. The animals received perifosine from day 0 to day 14 and were observed up to day 42. The weight of the tumor mass was estimated by palpation and comparison with plastic models.
as §1, with “eight” for “weight”, “tumor was” for “tumor”

tumor cells = conditions: Patel et al. 2002; cited from earlier work
[2] = Example 3, female Sprague-Dawley rat, Perifosine 14×6.81 mg/kg p.o., Adriamycin 4×2.15 mg/kg i.p.
[3] = Example 1, female Sprague-Dawley rat, Perifosin 14×6.81 mg/kg p.o., Cis-platinum 4×1 mg/kg i.p.
[4] = Example 2, female Sprague-Dawley rat, Perifosine 14×6.81 mg/kg p.o., Cyclophosphamide 100 mg/kg i.v.

Row | Structure (SMILES) | Day 21, Change in % (tumor weight) [1, 2] | Day 21, Change in % (tumor weight) [1, 3] | Day 21, Change in % (tumor weight) [1, 4] | cell cycle block (tumor cells)
1 | COc1cccc2c1C(=O)c1c(O)c3c(c(O)c1C2=O)C[C@@](O)(C(=O)CO)C[C@@H]3O[C@H]1C[C@H](N)[C@H](O)[C@H](C)O1 [Adriamycin, reference compound] | 781% | – | – | –
2 | N.N.[Cl][Pt][Cl] [Cis-platinum, reference compound] | – | 410% | – | –
3 | O=P1(N(CCCl)CCCl)NCCCO1 (stereo not shown) [Cyclophosphamide, reference compound] | – | – | 500% | –
4 | CCCCCCCCCCCCCCCCCCOP(=O)([O-])OC1CC[N+](C)(C)CC1 [Perifosin (D-21266), perifosine] | −25% | −25% | −25% | blocks tumor cells in the G1-S and G2-M phase of the cell cycle

— patent publication US8551977B2, “Use of perifosine in combination with antimetabolites for the treatment of benign and malignant oncoses in humans and mammals” (AEterna Zentaris GmbH, priority 2002, dated 2013)
